Data published in US20230339851A1, “CXCR6 SULFONAMIDE COMPOUNDS” (CHEMOCENTRYX, INC., priority 2022, published 2023).

Target: T1, human CXCR6 (Homo sapiens, UniProt O00574)
T1 construct: expressed in transfected cells
Assay: Radioligand Binding Assay (125I-CXCL16 displacement)
Details: L1.2 cells stably transfected with human CXCR6 cDNA, 0.1 nM 125I-CXCL16, 4° C., three-hour incubation; read-out: Potency (IC50)
Description: L1.2 cells stably transfected with human CXCR6 cDNA ([…]) were incubated at 4° C. in HBSS containing 0.1 % BSA and 0.1 nM of ^125I-CXCL16 plus various concentrations of Compound. Following a three-hour incubation period, cells were aspirated onto polyethyleneimine-treated GF/B glass fiber filters (PerkinElmer, Waltham, MA) with a cell harvester (Tomtec, Hamden, CT) and washed twice with washing buffer (25 mM Hepes, 500 mM NaCl, 1 mM CaCI2, 5 mM MgCI2, pH 7.1). Fifty µl of MicroScint-20 (PerkinElmer, Waltham, MA) was added to each well of the filters, and radioactive emissions (cpm) were measured on a Packard TopCount Scintillation counter (PerkinElmer, Waltham, MA). IC50 values were calculated with GraphPad Prism using 3 parameter nonlinear regression. […]

T1 sequence (O00574 whole entry): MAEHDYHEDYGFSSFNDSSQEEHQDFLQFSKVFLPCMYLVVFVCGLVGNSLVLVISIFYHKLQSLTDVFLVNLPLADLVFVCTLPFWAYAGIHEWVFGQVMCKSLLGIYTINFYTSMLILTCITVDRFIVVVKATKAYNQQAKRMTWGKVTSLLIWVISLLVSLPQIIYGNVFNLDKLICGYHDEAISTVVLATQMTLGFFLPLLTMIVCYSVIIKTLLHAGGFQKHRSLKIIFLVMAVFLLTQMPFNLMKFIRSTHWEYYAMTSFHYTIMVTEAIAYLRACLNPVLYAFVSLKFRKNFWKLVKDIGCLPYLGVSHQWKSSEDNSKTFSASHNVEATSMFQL

IC50 [nM] | Structure (SMILES)
≤ 200 | CCOc1cc(NC(=O)c2cccnc2C)ccc1S(=O)(=O)Nc1cccc(OC(F)(F)F)c1 [Example 1.200]
≤ 200 | CCOc1cc(NC(=O)[C@@H](NC(=O)C(F)(F)F)C(C)CC)ccc1S(=O)(=O)Nc1cccc(OC(F)(F)F)c1 (some centres unmarked) [Example 1.089]
200 to 750 | CCOc1cc(NC(=O)C2CCC[C@@H]2O)ccc1S(=O)(=O)Nc1cccc(OC(F)(F)F)c1 (some centres unmarked) [Example 1.185]
≤ 200 | CCOc1cc(NC(=O)C2CCC=C[C@@H]2O)ccc1S(=O)(=O)Nc1cccc(OC(F)(F)F)c1 (some centres unmarked) [Example 1.303]
≤ 200 | CCOc1cc(NC(=O)c2cncnc2)ccc1S(=O)(=O)Nc1cccc(OC(F)(F)F)c1 [Example 1.171]
200 to 750 | CCOc1cc(NC(=O)C(O)c2ccc(C)cc2)ccc1S(=O)(=O)Nc1cccc(OC(F)(F)F)c1 (centres unmarked) [Example 1.466]
≤ 200 | CCOc1cc(NC(=O)[C@H]2CC(C)=C(C)C[C@@H]2CO)ccc1S(=O)(=O)Nc1cccc(OC(F)(F)F)c1 [Example 1.250]
≤ 200 | COc1cc(NC(=O)[C@@H](CO)C(C)C)ccc1S(=O)(=O)Nc1ccc(C)c(OC(F)(F)F)c1 [Example 1.191]
750 to 2000 | CCOc1cc(NC(=O)[C@H]2CCCC[C@@H]2O)ccc1S(=O)(=O)Nc1cccc(OC(F)(F)F)c1 [Example 1.169]
750 to 2000 | CCOc1cc(NC(=O)[C@@H](CO)C(C)C)ccc1S(=O)(=O)Nc1cccc(Cl)c1OC [Example 1.362]
200 to 750 | CCOc1cc(NC(=O)C2COC[C@H]2O)ccc1S(=O)(=O)Nc1cccc(OC(F)(F)F)c1 (mixture of isomers) [Example 1.518]
≤ 200 | COc1cc(NC(=O)[C@@H](O)c2ccccc2)ccc1S(=O)(=O)Nc1cccc(OC(F)(F)F)c1 [Example 1.129]
≤ 200 | CCOc1cc(NC(=O)C(O)C(F)(F)F)ccc1S(=O)(=O)Nc1cccc(OC(F)(F)F)c1 (centres unmarked) [Example 1.406]
≤ 200 | Cc1cc(NC(=O)[C@@H](N)c2ccccc2)ccc1S(=O)(=O)Nc1cccc(OC(F)(F)F)c1 [Example 1.450]
2000 to 20000 | COc1cc(NC(=O)CC(C)(C)O)ccc1S(=O)(=O)Nc1cccc(C(F)(F)F)c1 [Example 1.122]
750 to 2000 | CCOc1cc(NC(=O)C2(COC)CC2)ccc1S(=O)(=O)Nc1cccc(OC(F)(F)F)c1 [Example 1.302]
≤ 200 | CCCc1cc(NC(=O)[C@@H](CO)C(C)C)ccc1S(=O)(=O)Nc1cccc(OC(F)(F)F)c1 [Example 1.311]
≤ 200 | CCOc1cc(NC(=O)[C@@H](O)C(C)C)ccc1S(=O)(=O)Nc1cccc(C(C)(F)F)c1 [Example 1.261]

IC50 [nM] | Structure (SMILES)
2000 to 20000 | CCOc1cc(NC(=O)C2CCC(O)CC2)ccc1S(=O)(=O)Nc1cccc(OC(F)(F)F)c1 (centres unmarked) [Example 1.285]
≤ 200 | Cc1cc(NC(=O)[C@@H](O)C(C)C)ccc1S(=O)(=O)Nc1cccc(OC(F)(F)F)c1 [Example 1.322]
≤ 200 | CCOc1cc(NC(=O)[C@@H](CO)C2CC2)ccc1S(=O)(=O)Nc1cccc(C(F)(F)F)c1 [Example 1.494]
≤ 200 | CCOc1cc(NC(=O)[C@H]2CCOC[C@@H]2CC)ccc1S(=O)(=O)Nc1cccc(OC(F)(F)F)c1 (racemic) [Example 1.065]
≤ 200 | CCOc1cc(NC(=O)C(O)c2cccc(C(F)(F)F)c2)ccc1S(=O)(=O)Nc1cccc(OC(F)(F)F)c1 (centres unmarked) [Example 1.327]
≤ 200 | CCOc1cc(NC(=O)C(CO)c2ccccc2)ccc1S(=O)(=O)Nc1cccc(OC(F)(F)F)c1 (centres unmarked) [Example 1.473]
200 to 750 | CCOc1cc(NC(=O)[C@@H](CO)C(C)C)ccc1S(=O)(=O)Nc1cccc(Cl)c1Cl [Example 1.054]
750 to 2000 | CCOc1cc(NC(=O)C2CCC(O)C2)ccc1S(=O)(=O)Nc1cccc(OC(F)(F)F)c1 (centres unmarked) [Example 1.373]
≤ 200 | CCOc1cc(NC(=O)c2ccncc2)ccc1S(=O)(=O)Nc1cccc(OC(F)(F)F)c1 [Example 1.366]
≤ 200 | CCOc1cc(NC(=O)C(CN)c2ccccc2)ccc1S(=O)(=O)Nc1cccc(OC(F)(F)F)c1 (centres unmarked) [Example 1.104]
≤ 200 | COCc1cc(NC(=O)[C@@H](O)C(C)C)ccc1S(=O)(=O)Nc1cccc(OC(F)(F)F)c1 [Example 1.188]
≤ 200 | CCC(C)[C@H](O)C(=O)Nc1ccc(S(=O)(=O)Nc2cccc(OC(F)(F)F)c2)c(OC)c1 (some centres unmarked) [Example 1.391]
750 to 2000 | CCOc1cc(NC(=O)[C@@H](NC(=O)OC(C)(C)C)C(C)O)ccc1S(=O)(=O)Nc1cccc(OC(F)(F)F)c1 (some centres unmarked) [Example 1.020]
≤ 200 | CCOc1cc(NC(=O)c2ccc[n+]([O-])c2)ccc1S(=O)(=O)Nc1cccc(OC(F)(F)F)c1 [Example 1.510]
≤ 200 | COc1cc(NC(=O)[C@@H](CO)C(C)C)ccc1S(=O)(=O)Nc1cccc(OC(F)(F)F)c1 [Example 1.009]
≤ 200 | CCOc1cc(NC(=O)C(CC)C(=O)O)ccc1S(=O)(=O)Nc1cccc(OC(F)(F)F)c1 (centres unmarked) [Example 1.571]
2000 to 20000 | CCOc1cc(NC(=O)c2cccn(C)c2=O)ccc1S(=O)(=O)Nc1cccc(OC(F)(F)F)c1 [Example 1.260]
200 to 750 | Cc1cc(NC(=O)C(CO)c2ccccc2)ccc1S(=O)(=O)Nc1cccc(OC(F)(F)F)c1 (centres unmarked) [Example 1.569]

Second part, the molecule before the results:

Structure (SMILES) | IC50 [nM]
COc1cc(NC(=O)[C@@H]2CCC[C@H](OC)C2)ccc1S(=O)(=O)Nc1cccc(C(F)(F)F)c1 [Example 1.561] | 2000 to 20000
CC(C)Oc1cc(NC(=O)c2ccns2)ccc1S(=O)(=O)Nc1cccc(C(F)(F)F)c1 [Example 1.542] | 2000 to 20000
CCOc1cc(NC(=O)[C@@H](CO)c2ccccc2)ccc1S(=O)(=O)Nc1ccc2c(c1)OC(F)(F)O2 [Example 1.121] | 2000 to 20000
CC(=O)Nc1ccc(S(=O)(=O)Nc2cccc(C(F)(F)F)c2)c(OC(F)(F)F)c1 [Example 1.264] | 2000 to 20000
Cc1cc(NC(=O)c2cccc(F)c2)ccc1S(=O)(=O)Nc1cccc(C(F)(F)F)c1 [Example 1.380] | 200 to 750
Cc1cc(NC(=O)c2ccccc2)ccc1S(=O)(=O)Nc1cccc(C(F)(F)F)c1 [Example 1.447] | 200 to 750
CCOc1cc(NC(=O)[C@@H](O)c2ccccc2)ccc1S(=O)(=O)Nc1ccc(C2CC2)c(OC(F)(F)F)c1 [Example 1.556] | 200 to 750
Cn1nccc1C(=O)Nc1ccc(S(=O)(=O)Nc2cccc(C(F)(F)F)c2)c(C#N)c1 [Example 1.187] | 2000 to 20000
COc1cc(NC(=O)CC2CCCC2)ccc1S(=O)(=O)Nc1cccc(C(F)(F)F)c1 [Example 1.069] | 200 to 750
CCOc1cc(NC(=O)[C@@H](O)C(C)C)ccc1S(=O)(=O)Nc1ccc2c(c1)OC(F)(F)O2 [Example 1.340] | 750 to 2000
Cc1cc(NC(=O)c2ccnn2C)cc(F)c1S(=O)(=O)Nc1cccc(OC(F)(F)F)c1 [Example 1.502] | 200 to 750
COc1cc(NC(=O)c2ccnn2C)ccc1S(=O)(=O)Nc1ccc(F)c(C(F)(F)F)c1 [Example 1.248] | 750 to 2000
CCOc1cc(NC(=O)[C@@H](O)C(C)C)ccc1S(=O)(=O)Nc1cccc(C(C)(C)C)c1 [Example 1.277] | 200 to 750
CCOc1cc(NC(=O)[C@@H](O)C(C)C)ccc1S(=O)(=O)Nc1ccc(C)c(C(C)C)c1 [Example 1.445] | ≤ 200
Cn1nccc1C(=O)Nc1ccc(S(=O)(=O)Nc2cccc(C(F)(F)F)c2)c(F)c1 [Example 1.256] | 2000 to 20000
Cc1cc(NC(=O)c2ccnn2C)ccc1S(=O)(=O)Nc1cccc(C(F)(F)F)c1 [Example 1.036] | ≤ 200

Structure (SMILES) | IC50 [nM]
CCOc1cc(NC(=O)[C@@H](CO)c2ccccc2)ccc1S(=O)(=O)Nc1ccc(CO)c(C(F)(F)F)c1 [Example 1.388] | 2000 to 20000
CCOc1cc(NC(=O)[C@@H](CO)c2ccccc2)ccc1S(=O)(=O)Nc1cccc(Cl)c1C [Example 1.221] | 2000 to 20000
CCOc1cc(NC(=O)C2CC3CCC2O3)ccc1S(=O)(=O)Nc1cccc(OC(F)(F)F)c1 (centres unmarked) [Example 1.061] | ≤ 200
CCOc1cc(NC(=O)c2ccnn2C)ccc1S(=O)(=O)Nc1cccc(C(F)(F)F)c1 [Example 1.068] | ≤ 200
COc1cc(NC(=O)C2CCCCC2C)ccc1S(=O)(=O)Nc1cccc(C(F)(F)F)c1 (centres unmarked) [Example 1.417] | 750 to 2000
CCOc1cc(NC(=O)C2CCS(=O)(=O)CC2)ccc1S(=O)(=O)Nc1cccc(OC(F)(F)F)c1 [Example 1.470] | 2000 to 20000
CCOc1cc(NC(=O)[C@@H](CO)c2ccccc2)ccc1S(=O)(=O)Nc1ccc(Cl)c(C(F)(F)F)c1 [Example 1.178] | 200 to 750
COc1cc(NC(=O)c2ccn(C)c(=O)c2)ccc1S(=O)(=O)Nc1cccc(OC(F)(F)F)c1 [Example 1.038] | 200 to 750
CCOc1cc(NC(=O)[C@@H](CO)c2ccccc2)ccc1S(=O)(=O)Nc1ccc(Cl)c(OC)c1 [Example 1.550] | 200 to 750
Cc1cc(NC(=O)C2CCN(C(=O)OC(C)(C)C)CC2)ccc1S(=O)(=O)Nc1cccc(C(F)(F)F)c1 [Example 1.365] | 2000 to 20000
Cc1cc(NC(=O)c2cocn2)ccc1S(=O)(=O)Nc1cccc(C(F)(F)F)c1 [Example 1.301] | 2000 to 20000
COc1ccccc1C(=O)Nc1ccc(S(=O)(=O)Nc2cccc(C(F)(F)F)c2)c(OC)c1 [Example 1.294] | 2000 to 20000
COc1cc(NC(=O)[C@H]2CCCNC2)ccc1S(=O)(=O)Nc1cccc(C(F)(F)F)c1 [Example 1.323] | 2000 to 20000
COc1cc(NC(=O)c2ccnn2C)ccc1S(=O)(=O)Nc1cc(Cl)cc(C(F)(F)F)c1 [Example 1.011] | 750 to 2000
C=Cc1ccc(NS(=O)(=O)c2ccc(NC(=O)[C@@H](CO)C3CC3)cc2OCC)cc1C [Example 1.146] | ≤ 200
COc1cc(NC(=O)c2ccnn2C)ccc1S(=O)(=O)Nc1ccc(Cl)c(OC(F)(F)F)c1 [Example 1.469] | ≤ 200
